Measured values: patent US7579448B2, “Purification of microbial cell fermentation homogenates” (Genentech, Inc., priority 2003, dated 2009)

Columns and labels:
[1] = Ethacridine lactate solubility at increasing NaCl concentrations; assay type: physicochemical
Protocol: The samples were incubated for three hours at room temperature before the concentration of soluble ethacridine lactate was determined. The open keys symbolize the 1.2% ethacridine lactate solution and the closed keys the 0.6% solution. The solid line is the 0.6% ethacridine lactate solution at pH 6.0, the broken line is the 1.2% ethacridine lactate solution at pH 6, the dotted line is the 0.6% ethacridine lactate solution at pH 9, and the broken line with dots is the 1.2% ethacridine lactate solution at pH 9.
Two ethacridine lactate solutions, i.e., 0.6 and 1.2%, were studied. Each solution was divided into two aliquots and pH adjusted to 6.0 and 9.0, respectively. To obtain a slight buffer capacity in the system, the ethacridine lactate was dissolved in 10 mM Tris-HCl buffer. Each ethacridine lactate solution was exposed to increasing amounts of NaCl, i.e., 0, 50, 100, 150, 200, 300, and 600 mM. The samples were incubated for 3 hours, then centrifuged for 20 minutes at 12000 g in a microfuge (SORVALL MC12V™, DuPont, Wilmington, Del., USA). The supernatants were assayed for ethacridine lactate by measuring the absorption at 270 nm. The spectrophotometer used was a HP8453 UV-VIS™ from Hewlett Packard (Wilmington, Del.), now Aligent Technologies (Palo Alto, Calif.) and known as the AGILENT 8453 UV-VIS™ spectrophotometer. A standard curve was derived from a solution with known ethacridine lactate concentration.

[2] = Conductivity study: NaCl added to anti-CD18 homogenate with 0.6% ethacridine lactate; assay type: physicochemical; conditions: 100 mM NaCl, anti-CD18 homogenate diluted 4-fold
Protocol: Various concentrations of NaCl were added to anti-CD18 homogenate to evaluate the effect of conductivity on protein precipitation. The NaCl concentrations studied were 0, 50, 100, 150, 200, and 400 mM. A reference series without ethacridine lactate was also performed to determine if any protein was precipitated due to the high salt concentration. The pH in this salt spike study was 8.5 and the anti-CD18 homogenate was diluted 4-fold. The ethacridine lactate concentration in the samples was 0.6% and 0% for the reference experiments.

**Q.** With `CC(O)C(=O)O.CCOc1ccc2nc3cc(N)ccc3c(N)c2c1` [ethacridine lactate, 6,9-diamino-2-ethoxyacridine lactate] as the compound, how does the “solubility of ethacridine lactate” value ([1]; pH 6, 0.6 and 1.2% solutions, 50 mM NaCl, 3 hours at room temperature) read?
**A.** Its value is “soluble”.

**Q.** And the “solubility of ethacridine lactate” value ([1]; pH 6, 0.6 and 1.2% solutions, 100 mM NaCl, 3 hours at room temperature)?
**A.** Its value is “nearly fully precipitated”.

**Q.** And the “solubility of ethacridine lactate” value ([1]; pH 9, 0.6% solution compared with 1.2% solution, increasing NaCl)?
**A.** Its value is “precipitated at lower salt concentration than the more concentrated ethacridine lactate solution”.

**Q.** What about the “precipitation of ethacridine lactate in the extraction system” value [2] of the same compound?
**A.** Its value is “precipitation of ethacridine lactate was observed”.
